Read-outs that look alike come from different tables or passages of the source.
What was measured:
Format in all cases: cell-based
[1] = test system: five representative phytopathogens; experiment: Agar-well diffusion, bactericidal activity over the panel of phytopathogens; details: 36 h, 2 mM solutions; dependent on the test system used; read-out: inhibition zone width (mm), range over the test systems
Text: Plant pathogenic bacterial strains Micrococcus luteus B-109, Pectobacterium atrosepticum 1043, Pectobacterium carotovorum subsp. carotovorum MI, Pseudomonas fluorescens EL-2.1, and Xanthomonas campestris B-610 and the fungal strain Fusarium oxysporum IBPPM 543 were from the Collection of Rhizosphere Microorganisms, IBPPM RAS (WFCC no. 975, WDCM no. 1021) (CM IBPPM, http://collection.ibppm.ru). The pathogenic fungus Phytophthora cactorum VKM F-985, provided by the All-Russian Collection of Microorganisms (VKM) and deposited at the A.E. Favorsky Irkutsk Institute of Chemistry, SB RAS, was also used as a test organism. Bacteria M. luteus, P. carotovorum subsp. carotovorum, P. atrosepticum, and P. fluorescens were grown in a meat–peptone medium (BP), and X. campestris was grown in the medium with glucose, yeast extract, and calcium carbonate (GYCa). Solid media contained Bacto agar (18 g/L); pH was adjusted to 7.2–7.4. All bacterial cultures were grown at 28 °C. The mycelial cultures of F. oxysporum and P. cactorum were grown on a glucose–peptone–yeast (GPY) nutrient medium at 27 °C. For inoculum preparation, both fungal strains were initially grown on the agar GPY in Petri dishes and then transferred into the seed medium by punching out 5 mm of the agar plate culture with a self-designed cutter.
The antibacterial and antifungal activities of the compounds were explored using the agar-well diffusion method and the technique of mycelial radial growth inhibition. The method of diffusion in agar (measuring the diameter of growth inhibition zones) was used to determine the bactericidal activity. The 6-mm wells were made in agar medium (GYCa for Xanthomonas campestris or BP for other bacteria). Bacterial suspensions were distributed over the agar surface, and the tested compound’s solution (150 μL) was added to each well. The width of growth inhibition zones around the wells was determined after incubation for 36–40 h.

[2] = test system: Pectobacterium carotovorum subsp. carotovorum MI; experiment: Agar-well diffusion, bactericidal activity; details: Pectobacterium carotovorum, 2 mM/L
In short: (§1)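 Bacteria spread on agar (BP medium; GYCa for X. campestris; pH 7.2–7.4) with 6-mm wells, each receiving 150 μL compound solution. Cultures grown at 28 °C; growth-inhibition zone width measured after 36–40 h.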

[3] = test system: Pseudomonas fluorescens EL-2.1; experiment: Agar-well diffusion, bactericidal activity; details: Pseudomonas fluorescens, EL2.1, 2 mM/L
In short: as §1

[4] = test system: Pectobacterium atrosepticum 1043; experiment: Agar-well diffusion, bactericidal activity; details: Pectobacterium atrosepticum, 1043, 2 mM/L
In short: as §1

Micrococcus luteus B-109 = experiment: Agar-well diffusion, bactericidal activity; details: Micrococcus luteus
In short: as §1

[5] = test system: Xanthomonas campestris B-610; experiment: Agar-well diffusion, bactericidal activity; details: Xanthomonas campestris
In short: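 Agar-well diffusion on GYCa agar (pH 7.2–7.4) seeded with bacterial suspension; 150 μL compound solution placed in 6-mm wells. Inhibition zone width measured after 36–40 h incubation.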

[6] = test system: Phytophthora cactorum VKM F-985; experiment: Mycelial radial growth inhibition; details: Phytophthora cactorum; for inhibition of growth at 1 µM: 1 nmol/mL; for inhibition of growth at 1 µM / inhibition of growth at 3 µM / inhibition of growth at 7 µM / inhibition of growth at 20 µM / inhibition of growth / inhibition of growth at 40 µM: read-out: Inhibition value, I (%); for inhibition of growth at 3 µM: 3 nmol/mL; for inhibition of growth at 7 µM: 7 nmol/mL; for inhibition of growth at 20 µM: 20 nmol/mL; for inhibition of growth: 27 nmol/mL; for inhibition of growth at 40 µM: 40 nmol/mL
In short: (§2)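 Compounds mixed into molten GPY agar at various concentrations; centre inoculated with a 5-mm mycelial plug from 10-day cultures and incubated at 27 °C. Colony diameter compared with untreated control until control plate was covered (usually 12 days); ≥4 replicates in two experiments.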

[7] = test system: Fusarium oxysporum IBPPM 543; experiment: Mycelial radial growth inhibition; details: Fusarium oxysporum; for inhibition of growth at 1 µM: 1 nmol/mL; for inhibition of growth at 1 µM / inhibition of growth at 5 µM / inhibition of growth at 30 µM / inhibition of growth at 40 µM: read-out: Inhibition value, I (%); for inhibition of growth at 5 µM: 5 nmol/mL; for inhibition of growth at 30 µM: 30 nmol/mL; for inhibition of growth at 40 µM: 40 nmol/mL
In short: as §2

[8] = Table S3, read-out: Inhibition zone width (mm), not less
[9] = 120 h, age of the fungus 5 days
[10] = 168 h, age of the fungus 7 days
[11] = 216 h, age of the fungus 9 days
[12] = IBPPM543, 72 h, age of the fungus 3 days
[13] = IBPPM543, 120 h, age of the fungus 5 days
[14] = IBPPM543, 168 h, age of the fungus 7 days
[15] = IBPPM543, 216 h, age of the fungus 9 days

Compound: Cc1ccc[n+](CC(=O)N/N=C2\C(=O)N(Cc3cccc(C(F)(F)F)c3)c3ccccc32)c1C [Compound 7c]
- zone of inhibition at 2000 µM [1]: 6 to 9 mm
- zone of inhibition at 2000 µM ([2]; average of 3 experiments, read-out: width of the inhibition zone (mm), P. carotovorum subsp. carotovorum): 7 mm
- zone of inhibition at 2000 µM [2, 8]: ≥ 7 mm
- zone of inhibition at 2000 µM ([3]; average of 3 experiments, read-out: width of the inhibition zone (mm), Ps. fluorescens): 7 mm
- zone of inhibition at 2000 µM [3, 8]: ≥ 7 mm
- zone of inhibition at 2000 µM ([4]; average of 3 experiments, read-out: width of the inhibition zone (mm), P. atrosepticum): 6 mm
- zone of inhibition at 2000 µM [4, 8]: ≥ 6 mm
- zone of inhibition at 2000 µM (Micrococcus luteus B-109; B109, 2 mM/L, average of 3 experiments, read-out: width of the inhibition zone (mm), M. luteus): 7 mm
- zone of inhibition at 2000 µM (Micrococcus luteus B-109; B109, Table S3, 2 mM/L, read-out: Inhibition zone width (mm), not less): ≥ 7 mm
- zone of inhibition at 2000 µM ([5]; B610, 2 mM/L, average of 3 experiments, read-out: width of the inhibition zone (mm), X. campestris): 9 mm
- zone of inhibition at 2000 µM ([5]; B610, Table S3, 2 mM/L, read-out: Inhibition zone width (mm), not less): ≥ 9 mm
- inhibition of growth at 1 µM ([6]; 72 h, age of the fungus 3 days): 10%
- inhibition of growth at 3 µM ([6]; 72 h, age of the fungus 3 days): 20%
- inhibition of growth at 7 µM ([6]; 72 h, age of the fungus 3 days): 26%
- inhibition of growth at 20 µM ([6]; 72 h, age of the fungus 3 days): 32%
- inhibition of growth ([6]; 72 h, age of the fungus 3 days): 48%
- inhibition of growth at 40 µM ([6]; 72 h, age of the fungus 3 days): 55%
- EC50 ([6]; 120 h, day 5, read-out: EC50, µg/mL at Day 5, P. cactorum): 20 µg/mL
- inhibition of growth at 1 µM [6, 9]: 11%
- inhibition of growth at 3 µM [6, 9]: 18%
- inhibition of growth at 7 µM [6, 9]: 22%
- inhibition of growth at 20 µM [6, 9]: 27%
- inhibition of growth [6, 9]: 36%
- inhibition of growth at 40 µM [6, 9]: 56%
- inhibition of growth at 1 µM [6, 10]: 12%
- inhibition of growth at 3 µM [6, 10]: 17%
- inhibition of growth at 7 µM [6, 10]: 22%
- inhibition of growth at 20 µM [6, 10]: 25%
- inhibition of growth [6, 10]: 33%
- inhibition of growth at 40 µM [6, 10]: 44%
- inhibition of growth at 1 µM [6, 11]: 11%
- inhibition of growth at 3 µM [6, 11]: 16%
- inhibition of growth at 20 µM [6, 11]: 9%
- inhibition of growth [6, 11]: 28%
- inhibition of growth at 40 µM [6, 11]: 41%
- inhibition of growth at 1 µM [7, 12]: 22%
- inhibition of growth at 5 µM [7, 12]: 36%
- inhibition of growth at 30 µM [7, 12]: 45%
- inhibition of growth at 40 µM [7, 12]: 57%
- EC50 ([7]; IBPPM543, 120 h, day 5, read-out: EC50, µg/mL at Day 5, F. oxysporum): 13.9 µg/mL
- inhibition of growth at 1 µM [7, 13]: 21%
- inhibition of growth at 5 µM [7, 13]: 35%
- inhibition of growth at 30 µM [7, 13]: 41%
- inhibition of growth at 40 µM [7, 13]: 63%
- inhibition of growth at 1 µM [7, 14]: 15%
- inhibition of growth at 5 µM [7, 14]: 27%
- inhibition of growth at 30 µM [7, 14]: 44%
- inhibition of growth at 40 µM [7, 14]: 66%
- inhibition of growth at 1 µM [7, 15]: 10%
- inhibition of growth at 5 µM [7, 15]: 22%
- inhibition of growth at 30 µM [7, 15]: 36%
- inhibition of growth at 40 µM [7, 15]: 64%

Source: PMC10607100, “Anticancer and Antiphytopathogenic Activity of Fluorinated Isatins and Their Water-Soluble Hydrazone Derivatives” (International Journal of Molecular Sciences, 2023)
